Reference: patent US9982138B2, “Hair color compositions comprising stable violet-blue to blue imidazolium dyes” (Noxell Corporation, priority 2016, dated 2018)
Structures can show the parent of a compound that is named as a salt.

Key:
Format in all cases: physicochemical
[1] = In-use disappearance of the dye in ammonia buffer with hydrogen peroxide (UV/visible absorbance); conditions: % loss recorded at 30 minutes in the presence of a 3% peroxide solution at pH 10.58
Protocol: Disappearance of the dye is measured on a Cary 100 UV/visible spectrophotometer. A solution of the dye in 50% aqueous ethanol at a concentration sufficient to give an absorbance of 2.0 at the dye's λmax and buffered at pH 10.6 with ammonia is mixed with an equal volume of 6% hydrogen peroxide in a 1 cm quartz cuvette. […]

[2] = Color (λmax) by UV/visible spectrophotometer
[3] = Storage stability: disappearance of the dye on storage at pH 10, 25° C. (UV/visible absorbance); conditions: % loss on 1-month storage at pH 10, 25° C.
Protocol: Disappearance of the dye is measured on a Cary 100 UV/visible spectrophotometer using a 1 cm cuvette. A solution of the dye is prepared at a concentration sufficient to give an absorbance of 0.9-1.1 at the dye's λmax when buffered at pH 10.0. The absorbance is measured after storage at 25° C. Percent disappearance is calculated as the difference between the starting absorbance (A0) and the absorbance (At) at a specific storage period divided by the starting absorbance minus the baseline absorbance (Ab), by the following equation: […]

Row | Compound | % Disappearance (In-use) [1] | Color (λmax; nm) [2] | % Disappearance (Storage) [3]
1 | CCN1CCN(CC)c2cc(/N=N/c3n(CCC[N+](C)(C)C)cc[n+]3CCC[N+](C)(C)C)ccc21 [Compound 2, (E)-2-((1,4-diethyl-1,2,3,4-tetrahydroquinoxalin-6-yl)diazenyl)-1,3-bis(3-(trimethyl-ammonio)propyl)-1H-imidazol-3-ium tribromide] | 0% | 580 nm | 0.71%
2 | CCCCCN1CCNc2cc(/N=N/c3n(CCCN)cc[n+]3CCCN)ccc21.Cl.Cl.[Br-] [Compound 5, (E)-1,3-bis(3-ammoniopropyl)-2-((1-pentyl-1,2,3,4-tetrahydroquinoxalin-6-yl)diazenyl)-1H-imidazol-3-ium bromide dichloride] | 2.9% | 582 nm | 3.14%
3 | CCCCCN1CCN(CCCCC)c2cc(/N=N/c3n(CCCCN)cc[n+]3CCCCN)ccc21.Cl.Cl.[Br-] [Compound 4, (E)-1,3-bis(4-ammoniobutyl)-2-((1,4-dipentyl-1,2,3,4-tetrahydroquinoxalin-6-yl)diazenyl)-1H-imidazol-3-ium bromide dichloride] | 1.85% | 599 nm | 3.86%
4 | CN1CCNc2cc(/N=N/c3n(CCCN)cc[n+]3CCCN)ccc21.Cl.Cl.[Br-] [Compound 3, (E)-1,3-bis(3-ammoniopropyl)-2-((1-methyl-1,2,3,4-tetrahydroquinoxalin-6-yl)diazenyl)-1H-imidazol-3-ium bromide dichloride] | 1.91% | 580 nm | 4.55%
5 | CCN1CCN(CC)c2cc(/N=N/c3n(CCCN)cc[n+]3CCCN)ccc21.Cl.Cl.[Br-] [Compound 1, (E)-1,3-bis(3-ammoniopropyl)-2-((1,4-diethyl-1,2,3,4-tetrahydroquinoxalin-6-yl)diazenyl)-1H-imidazol-3-ium bromide dichloride] | 2.0% | 587 nm | 2.05%

Results, then the molecule that gave them:

Row | % Disappearance (In-use) [1] | Color (λmax; nm) [2] | % Disappearance (Storage) [3] | Compound
6 | 10.86% | 592 nm | 3.47% | CCN1CCN(CC)c2cc(/N=N/c3n(CCC[N+](C)(C)C)cc[n+]3CCC[N+](C)(C)C)ccc21 [Compound 6]
7 | 1.28% | 553 nm | 1.27% | Cn1cc[n+](C)c1/N=N/c1cc2c3c(c1)OCCN3CCO2 [Compound 8, (E)-1,3-dimethyl-2-((2,3,4,5-tetrahydro-1,6-dioxa-3a-azaphenalen-8-yl)diazenyl)-1H-imidazol-3-ium methyl sulfate]
8 | 1.85% | 587 nm | 3.37% | CCN1CCN(CC)c2cc(/N=N/c3n(CCCCN)cc[n+]3CCCCN)ccc21 [Compound 9]
9 | 0.8% | 580 nm | 4.79% | C=CCN1CCN(CC=C)c2cc(/N=N/c3n(CCCCN)cc[n+]3CCCCN)ccc21 [Compound 7]
